Laboratory results from patent publication US7432228B2, “Inhibitor against biosynthesis of abscisic acid” (Riken, priority 2001, dated 2008).

Columns and labels:
Mung bean = test: Root length of cut Mung bean hypocotyls soaked in compound solutions; assay type: in vivo; conditions: Mung bean hypocotyls soaked by 2 cm in compound solution at a given concentration; 6th day after soaking
Procedure: The compounds of the present invention were applied to plant bodies. Hypocotyls of Mung bean on the 6th-day after seeding, that were grown at 25° C., were cut in water with razor, and the hypocotyl parts were soaked by 2 cm in solutions of the compounds at a given concentration. On the 6th day after the soaking, the lengths of the roots were measured. The following results were shown as an average length per root.

seeds of barley = test: Germination rate of barley seeds; assay type: in vivo; conditions: barley seeds with lowered germination rate; 100 seeds, test solution at a given concentration, light, 25° C., after one week
Procedure: In the test, 2 sheets of filter paper were placed in a 15 cm laboratory dish, and each of the test solutions of the compounds at a given concentration (10 ml) was added to the dish, and 100 seeds were put on the paper and cultured under a light at 25° C. Ratios of germinated seeds were calculated after one week.

spinach = test: Inhibitory test against pore closing; assay type: in vivo; conditions: for inhibitory activities against pore closing: plants with open pores treated with compound, transferred into mannose solution of high concentration
Procedure: Inhibitory tests against pore closing were carried out by using the aforementioned compounds. In these tests, plants in the state that their pores are open are treated with the compounds, and closings of the pores are examined when the plants are transferred into a mannose solution of high concentration to make the pores closed. Pore closing is caused by the effect of abscisic acid biosynthesized in the body of a plant that has detected the change of the mannose concentration. The test was carried out according to the method described in the literature of Plant Physiology (1992) 99, 1258-1260 and by using spinach as a material.

[1] = tested on: epoxycarotenoid dioxygenase (NCED); test: Inhibitory action against epoxycarotenoid dioxygenase (NCED): cleavage reaction of neoxanthin; assay type: biochemical; conditions: concentration of 100 μM
Procedure: The inhibitory action against epoxycarotenoid dioxygenase was studied. The test was carried out according to the method described in The Plant Journal (2001) 27(4), 325-333.
The NCED inhibitory activity of the compounds of the present invention was studied.

[2] = tested on: abscisic acid biosynthesis; conditions: reported in Plant Physiology (1992) 99, 1258-1260; cited from earlier work

Compound	Length (cm), average length per root (Mung bean) [cm]	Germination rate (%) (seeds of barley)	inhibitory activities against pore closing (spinach)	inhibition of the cleavage reaction of neoxanthin by NCED [1]	inhibitory action on the abscisic acid biosynthesis [2]	pore closing when treated plants were added with abscisic acid (spinach; compound-treated plants, abscisic acid added)
Oc1ccc(CCNCc2ccoc2)cc1 [SY107, 4-{2-[(furan-3-ylmethyl)-amino]-ethyl}-phenol]	>0.1	10	–	–	–	–
Oc1ccc(CCNCc2ccccc2O)cc1 [SY109, 4-[2-(2-hydroxy-benzylamino)-ethyl]-phenol]	1.5	35	potent inhibitory activities	–	–	–
COc1ccc(C=CCN(C)Cc2ccc(F)cc2)cc1OC [SY99, [3-(3,4-dimethoxy-phenyl)-allyl]-(4-fluoro-benzyl)-methyl-amine]	0.4	15	potent inhibitory activities	–	–	–
CC(Cc1ccc(O)c(O)c1)C(C)Cc1ccc(O)c(O)c1 (centres unmarked) [NDGA, 4,4′-(2,3-dimethyl-1,4-butanediyl)bis-1,2-benzenediol]	–	–	–	completely inhibited	inhibitory action on the abscisic acid biosynthesis	did not close
COc1ccc(C=CCNCc2ccc(F)cc2)cc1OC [SY95, [3-(3,4-dimethoxy-phenyl)-allyl]-(4-fluoro-benzyl)-amine]	0.6	29	potent inhibitory activities	–	–	–
COc1ccc(CNCCc2ccc(O)cc2)cc1OC [SY88, 4-[2-(3,4-dimethoxy-benzylamino)-ethyl]-phenol]	>0.1	8	–	–	–	–
COC(=O)CN(CC=Cc1ccc(OC)c(OC)c1)Cc1ccc(F)cc1 [SY97, [[3-(3,4-dimethoxy-phenyl)-allyl]-(4-fluoro-benzyl)-amino]-acetic acid methyl ester]	0.7	18	potent inhibitory activities	–	–	–
Oc1ccc(CCNCc2ccc(O)c(O)c2)cc1 [SY90, 4-{[2-(4-hydroxy-phenyl)-ethylamino]-methyl}-benzene-1,2-diol]	>0.1	12	–	–	–	–
COc1ccc(CCN(C)Cc2ccc(OC)c(OC)c2)cc1 [SY96, (3,4-dimethoxy-benzyl)-[2-(4-methoxy-phenyl)-ethyl]-methyl-amine]	1.5	21	potent inhibitory activities	–	–	–
COc1ccc(NCC=Cc2ccc(OC)c(OC)c2)cc1 [SY87, [3-(3,4-dimethoxy-phenyl)-allyl]-(4-methoxy-phenyl)-amine]	0.6	40	potent inhibitory activities	–	–	–
COC(=O)COc1ccc(CCN(CC(=O)OC)Cc2ccc(OC)c(OC)c2)cc1 [SY94, {(3,4-dimethoxy-benzyl)-[2-(4-methoxycarbonylmethoxy-phenyl)-ethyl]-amino}-acetic acid methyl ester]	2.1	52	potent inhibitory activities	–	–	–
Oc1ccc(CCNCc2ccncc2)cc1 [SY106, 4-{2-[(pyridin-4-ylmethyl)-2-amino]-ethyl}-phenol]	>0.1	9	–	–	–	–
